Assay results as given in BindingDB's records for patent US20240083900 (Biogen Ma, 2024).

Biological target: Tyrosine-protein kinase BTK (Homo sapiens, UniProt Q06187)
Assay: In Vitro BTK Kinase Assay: Btk-PolyGAT-LS Assay
Procedure: The purpose of the BTK in vitro assay is to determine compound potency against BTK through the measurement of IC50. […] For a typical assay, a 24 μL aliquot of a ATP/peptide master mix (final concentration; ATP 10 μM, polyGAT 100 nM) in kinase buffer (10 mM Tris-HCl pH 7.5, 10 mM MgCl2, 200 μM Na3PO4, 5 mM DTT, 0.01% Triton X-100, and 0.2 mg/ml casein) is added to each well. […] The assay is incubated for 30 minutes before being stopped with 28 μL of a 50 mM EDTA solution. […] The plate is covered and incubated for 45 minutes at room temperature.

Sequence of Tyrosine-protein kinase BTK (Q06187 whole entry): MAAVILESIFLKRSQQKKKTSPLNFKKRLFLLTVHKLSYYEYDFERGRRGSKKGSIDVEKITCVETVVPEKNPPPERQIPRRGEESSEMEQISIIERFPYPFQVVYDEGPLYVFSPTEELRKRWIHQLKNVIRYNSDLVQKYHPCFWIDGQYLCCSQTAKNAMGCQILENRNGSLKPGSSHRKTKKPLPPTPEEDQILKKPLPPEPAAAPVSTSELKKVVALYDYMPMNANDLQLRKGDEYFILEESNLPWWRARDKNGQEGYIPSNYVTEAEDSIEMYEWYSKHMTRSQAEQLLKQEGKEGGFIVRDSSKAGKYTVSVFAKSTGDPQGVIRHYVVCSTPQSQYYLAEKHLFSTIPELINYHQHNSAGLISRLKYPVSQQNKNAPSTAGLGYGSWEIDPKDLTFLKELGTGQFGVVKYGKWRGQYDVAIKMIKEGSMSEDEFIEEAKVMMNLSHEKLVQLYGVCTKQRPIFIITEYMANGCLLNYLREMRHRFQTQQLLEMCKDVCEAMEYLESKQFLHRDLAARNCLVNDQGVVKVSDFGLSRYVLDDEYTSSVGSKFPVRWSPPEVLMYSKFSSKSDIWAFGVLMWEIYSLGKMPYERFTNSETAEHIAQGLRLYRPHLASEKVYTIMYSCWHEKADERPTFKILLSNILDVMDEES

Cn1cc(-c2cn3nccc3c(OC3CCN(C(=O)/C=C\CCl)CC3)n2)cn1 [US20240083900, Example 8]
IC50: < 1 nM
